Data as given in US20230391828A1, “REGULATORS OF CELL DIVISION” (TECHNISCHE UNIVERSITÄT DRESDEN, priority 2020, published 2023).
“Also recorded” adds a separate entry of the source. Bridge positions count the residues as written; N and C are the ends. Square brackets hold non-standard residues; d marks the D form. Peptide text beside a SMILES is read from it. R8 = C=CCCCCCC[C@@](C)(N)C(=O)O; S5 = C=CCCC[C@](C)(N)C(=O)O

Legend:
APC/C [1] = target: T1, APC/C (Homo sapiens, UniProt Q9NYG5); assay: In vitro APC/C ubiquitination assay driven by the E2 enzyme UBE2C, fluorophore-labelled securin substrate; format: biochemical
T1 construct: made in house; host or cells: SF9 insect cells (baculovirus)
Description: (§1) Proteins were separated by SDS-PAGE electrophoresis using precast Bolt 4-12% Bis-Tris Plus protein gels (Thermo Fisher Scientific) and Criterion XT Bis-Tris Midi Protein Gels (Bio-Rad). In different experiments, various conditions were used: in vitro APC/C ubiquitination assays—165 V, 40 min, SDS-MES running buffer (50 mM MES, 50 mM Tris base, 0.1% SDS, 1 mM EDTA, pH 7.3; Thermo Fisher Scientific); in vitro APC/C ubiquitination assays determining KM—165V, 1 h, SDS-MOPS running buffer (50 mM MOPS, 50 mM Tris base, 0.1% SDS, 1 mM EDTA, pH 7.7; Thermo Fisher Scientific); pull-down binding assay—165 V, 35 min, SDS-MES running buffer.
APC/C-dependent ubiquitination reactions were performed at 30° C. in 30 mM HEPES pH 7.4, 175 mM NaCl, 8 mM MgCl2, 0.05% Tween-20, 1 mM DTT and 5% glycerol and contained 20 nM recombinant APC/C (note, for testing the first generation of inhibitors, APC/C and Cdc20 immunoprecipitated from mitotic HeLa K cells was used), 340 nM Cdc20, 46 nM GST-UBA1, 340 nM UBE2C (alternatively 400 nM UBE2D1, 280 nM UBE2S), 21 μM His6-ubiquitin or if it is indicated 21 μM methylated-ubiquitin (BostonBiochem), 2.6 mM ATP, 10 mM phosphocreatine and 11 μM creatine kinase. As substrates, 35 nM fluorophore-labeled ubiquitin-cyclin B and 50 nM fluorophore-labeled securin were standardly used (fluorophore IRDye 800CW (LI-COR) was used for labelling). In case of KM and kcat determination, 50, 100, 250, 500, 750, 1000, 1250, 2500 and 5000 nM fluorophore-labelled securin was used. The reaction was done in the volume of 15 μl, it was quenched after the indicated time with LDS sample buffer (Thermo Fisher Scientific) supplemented with 100 mM DTT and subjected to SDS-PAGE. Detection of fluorescently labelled substrates was done by quantitative near-infrared scanning system Odyssey.

APC/C [2] = target: T1, APC/C; assay: In vitro APC/C ubiquitination assay with different E2 enzymes (UBE2C, UBE2D, UBE2S), Ub-cyclin B1 substrate; format: biochemical; conditions: 100 μM, reaction time 40 min
Description: as §1
APC/C-dependent ubiquitination reactions were performed at 30° C. in 30 mM HEPES pH 7.4, 175 mM NaCl, 8 mM MgCl2, 0.05% Tween-20, 1 mM DTT and 5% glycerol and contained 20 nM recombinant APC/C (note, for testing the first generation of inhibitors, APC/C and Cdc20 immunoprecipitated from mitotic HeLa K cells was used), 340 nM Cdc20, 46 nM GST-UBA1, 340 nM UBE2C (alternatively 400 nM UBE2D1, 280 nM UBE2S), 21 μM His6-ubiquitin or if it is indicated 21 μM methylated-ubiquitin (BostonBiochem), 2.6 mM ATP, 10 mM phosphocreatine and 11 μM creatine kinase. […] Detection of fluorescently labelled substrates was done by quantitative near-infrared scanning system Odyssey.

APC/C (APC11) = target: T2, APC/C (APC11) (Homo sapiens, UniProt Q9NYG5); assay: Pull-down binding assay in HeLa K cell extract, APC/C; conditions: Pra peptide clicked to azide agarose or magnetic beads, Western blot
T2 construct: endogenous in cells; host or cells: HeLa K cell extract
Description: For the protein transfer, the 0.45 μm Immobilon-FL PVDF membrane (Merck Millipore) was used. The membrane was activated in ethanol and then transferred to the Blotting buffer (50 mM SDS-MOPS, 50 mM Tris base, 0.1% SDS, 1 mM EDTA, 20% EtOH). The proteins were transferred using a wet transfer for 1.5 h at 400 mA. Subsequently, the membrane was incubated with the blocking solution, 10% milk in PBS-T (0.02% Tween-20 in PBS), for 1 h at room temperature. To detect proteins of the interest, the membrane was incubated with primary antibodies overnight at 4° C. Followed by washing the membrane 3 times 10 min with PBS-T and incubation with IRDye fluorescently labelled secondary antibodies for 1 h. Prior detection, the membrane was twice washed with PBS-T for 10 min and once with PBS for 10 min. The detection was done using the quantitative near-infrared scanning system Odyssey (LI-COR Biosciences).
HeLa K cell pellet was re-suspended in the extraction buffer (30 mM HEPES pH 7.5, 175 mM NaCl, 2.5 mM MgCl2, 0.25% NP40, 10% glycerol, 1 mM DTT) supplemented with 10 μM MG132 (VWR), 1 mM PMSF (Sigma-Aldrich), complete protease inhibitor cocktail (Roche) and PhosSTOP phosphatase inhibitors (Roche) and incubated for 20 min on ice, followed by centrifugation of cell debris for 15 min at 4° C. 16 100 g. In mean time, inhibitor molecules containing Propargyl (Pra) chemical group were covalently attached to the azide agarose or azide magnetic resin (Jena Bioscience) by Cu(I)-catalysed azide-alkyne cycloaddition reaction. Specifically, the inhibitor molecules were mixed with azide agarose resin in ratio 0.125 μmol inhibitor/25 μl agarose resin and azide magnetic resin in ratio 0.018 μmol inhibitor/20 μl magnetic resin. The reaction was catalysed by 1 mM CuSO4, 0.1 mM TBTA (Sigma-Aldrich) and 1 mM Sodium ascorbate and was performed on the rotating wheel for 30 min at room temperature in the volume of 1 ml. Subsequently, the resin was washed 5 times with the extraction buffer. The inhibitor-agarose resin was added to 1 mg of HeLa K cell extract and the inhibitor-magnetic resin was added to 0.5 mg of HeLa K cell extract followed by incubation at 4° C. for 2 h. Followed by washing the resin 5 times with the extraction buffer. Pull-down proteins were eluted by boiling for 15 min with 1×LDS sample buffer supplemented with 100 mM DTT (agarose resin) or by incubation with 1×LDS sample buffer for 10 min at room temperature followed by taking supernatant that was supplemented with 100 mM DTT and boiling it for 10 min. Samples were subjected to SDS PAGE and Western blot analysis.
HeLa K cell pellet was re-suspended in the extraction buffer (30 mM HEPES pH 7.5, 175 mM NaCl, 2.5 mM MgCl2, 0.25% NP40, 10% glycerol, 1 mM DTT supplied with complete protease inhibitor cocktail (Roche), PhosSTOP phosphatase inhibitors (Roche), 1 mM PMSF, 10 μM MG132) and incubated for 20 min on ice, followed by centrifugation to clear the lysate for 15 min at 4° C. 16,100 g. In the meantime, inhibitor molecules containing the propargyl-Gly-OH (Pra) chemical group were covalently attached to the azide agarose resin (Jena Bioscience) by Cu(I)-catalysed azide-alkyne cycloaddition reaction. Specifically, the inhibitor molecules were mixed with azide agarose resin in ratio 0.125 μmol inhibitor/20 μl agarose resin. The reaction was catalysed by 0.1 mM CuSO4, 0.5 mM THPTA (Sigma-Aldrich) and 5 mM Sodium ascorbate and was performed on the rotating wheel for 30 min at room temperature in the volume of 1 ml. […]

APC/C [3] = assay: Ubiquitinated securin (Mean ± SD); conditions: 100 µM
Text: Table printed on a drawing sheet, Figure 6
Head of the field: Ubiquitinated securin (Mean ± SD)

HeLa K cells = assay: Live cell imaging of HeLa K cells; format: cell-based, human; conditions: 50 μM
Description: Automated time-lapse microscopy was performed using ImageXpress Micro XLS wide-field screening microscope (Molecular Devices) equipped with a 10×, 0.5 NA., 20×, 0.7 NA, and 40×, 0.95 NA Plan Apo air objectives (Nikon), a laser-based autofocus and a full environmental control (5% CO2, 37° C.). Cells were grown in 96-well plastic bottom plates (clear, Greiner Bio-One) and for live cell imaging media was changed to DMEM without phenol red and riboflavin (Thermo Fisher Scientific), supplemented with 10% (v/v) FBS, 1% (v/v) Glutamax, 1% (v/v) penicillin-streptomycin, and 0.5 μg/ml amphotericin B.
HeLa K cells were seeded into 96-well plates (4000-4500 cells) one day prior the treatment with compounds of the invention. Cells were treated with 50 μM of compound G3_mod1_mini PEG and cell division was monitored by live cell imaging using ImageXpress Micro XLS wide-field screening microscope, images were acquired every 3 min for time courses of 48 h. The length of mitosis was determined manually.
(§2) Automated time-lapse microscopy was performed using ImageXpress Micro XLS wide-field screening microscope (Molecular Devices) equipped with a 10×, 0.5 NA., 20×, 0.7 NA, and 40×, 0.95 NA Plan Apo air objectives (Nikon), a laser-based autofocus and a full environmental control (5% CO2, 37° C.). Cells were grown in 96-well plastic bottom plates (clear, Greiner Bio-One) and for live cell imaging media was changed to imaging media. Imaging media for A549, HeLa K and SW480 was DMEM without phenol red and riboflavin (Thermo Fisher Scientific), supplemented with 10% (v/v) FBS, 1% (v/v) Glutamax, and 1% (v/v) penicillin-streptomycin; imaging media for HT-1080 and RKO was RPMI 1640 without phenol red (Thermo Fisher Scientific), supplemented with 10% (v/v) FBS, and 1% (v/v) penicillin-streptomycin.
(§3) A549 (5000-5500 cells), HeLa K (3000-4000 cells), HT-1080 (4000 cells), RKO (5000 cells), and SW480 (7000-8000 cells) cells were seeded into 96-well plates one day prior to treatment with compounds of the invention. Cells were treated with 50 μM of compound G3_mod1_mini PEG and cell division was monitored by live cell imaging using an ImageXpress Micro XLS wide-field screening microscope and images were acquired every 3 min for time courses of 24 h. The length of mitosis was determined manually.

A549 cells = assay: Live cell imaging of A549 cells; format: cell-based, human; conditions: A549, 50 μM, imaged 24 h
Description: as §2, §3

HT-1080 cells = assay: Live cell imaging of HT-1080 cells; format: cell-based, human; conditions: HT-1080, 50 μM, imaged 24 h
Description: as §2, §3

RKO cells = assay: Live cell imaging of RKO cells; format: cell-based, human; conditions: 50 μM, imaged 24 h
Description: as §2, §3

SW480 cells = assay: Live cell imaging of SW480 cells; format: cell-based, human; conditions: SW480, 50 μM, imaged 24 h
Description: as §2, §3

**Q.** With `CC[C@H](C)[C@@H]1NC(=O)[C@H](CCC(=O)O)NC(=O)[C@H](CCCCN)NC(=O)[C@H]([C@@H](C)CC)NC(=O)[C@](C)(NC(=O)[C@H](Cc2c[nH]c3ccccc23)NC(=O)[C@H](Cc2c[nH]c3ccccc23)NC(=O)[C@H](CCC(=O)O)NC(C)=O)CCCCCCC=CCCC[C@@](C)(C(=O)N[C@@H](CCCNC(=N)N)C(=O)N[C@@H](CCCNC(=N)N)C(=O)N[C@@H](C)C(N)=O)NC(=O)[C@H](CCCNC(=N)N)NC(=O)[C@H](CCC(N)=O)NC1=O` [G3-6, Ac-cyclo(4,11)-EWWZIKEIQRXRRA-NH2] (Ac-EWW[R8]IKEIQR[S5]RRA-NH2; staple 4-11) as the compound, how does the “difference between KM without and with inhibitor” value (APC/C [1]; 3 μM G3-6, securin titration, unpaired t test p=0.0886) read?
**A.** not significant

**Q.** What about the “inhibition of APC/C activity in vitro compared with TAME” value (APC/C [1]; 100 μM, UBE2C, reaction time 45 min, 3 independent assays) of the same compound?
**A.** inhibit APC/C in vitro more efficiently than TAME

**Q.** What about the “inhibition of APC/C activity in vitro, titration” value (APC/C [1]; 25, 50, 75 and 100 μM, UBE2C, reaction time 45 min) of the same compound?
**A.** inhibits APC/C in vitro the most potently

**Q.** And the IC50 (APC/C [1]; UBE2C, 0.01-100 μM, reaction time 10 min, methylated ubiquitin, ubiquitinated securin, 4 independent experiments)?
**A.** 1.96 µM

**Q.** And the Ki (APC/C [1]; model for non-competitive inhibition in Prism 6.0, 3 μM inhibitor, securin 50-5000 nM, reaction time 2 min, read-out: inhibitory constant (Ki))?
**A.** 5 µM

**Q.** What about the “mechanism of action (type of the inhibition)” value (APC/C [1]; titration of substrate (securin)) of the same compound?
**A.** non-competitive inhibitor

**Q.** What about the “IC50 (in words)” value (APC/C [1]; titration of the G3-6 molecule) of the same compound?
**A.** low micromolar range

**Q.** And the “inhibition of APC/C activity driven by different E2 enzymes” value (APC/C [2])?
**A.** inhibits APC/C in vitro independently on employed E2 enzymes

**Q.** What about the “binding to the APC/C (pull-down)” value (APC/C (APC11)) of the same compound?
**A.** binds specifically to the APC/C

**Q.** And the “Ubiquitinated securin (Mean ± SD)” value (APC/C [3])?
**A.** 3.6 ± 5%

**Q.** Which “cell fate (cell death)” value (HeLa K cells; imaged 24 h) does the source give for “Ac-GFWFG-NH(CH2)2OCH2CO-cyclo(4,11)-EWWZIKEIQRXRRA-NH2 ({Ac-Gly-Phe-Trp-Phe-Gly-miniPEG}-EWW[R8]IKEIQR[S5]RRA-NH2; staple 4-11) [G3-6_mod1_miniPEG]” here?
**A.** cause cell death after a metaphase arrest in a subpopulation

**Q.** What about the “effect on mitosis (length of mitosis)” value (HeLa K cells; imaged 24 h) of the same compound?
**A.** prolongs mitosis

**Q.** And the “cell fate (cell death)” value (HeLa K cells; imaged 48 h)?
**A.** causes cell death after metaphase

**Q.** What about the “effect on mitosis (length of mitosis)” value (HeLa K cells; imaged 48 h) of the same compound?
**A.** prolongs mitosis by arresting cells in metaphase; also recorded: induces a metaphase delay

**Q.** What about the “effect on mitosis (length of mitosis)” value (A549 cells) of the same compound?
**A.** prolongs mitosis

**Q.** And the “cell fate (cell death)” value (HT-1080 cells)?
**A.** cause cell death after a metaphase arrest in a subpopulation

**Q.** What about the “effect on mitosis (length of mitosis)” value (HT-1080 cells) of the same compound?
**A.** prolongs mitosis

**Q.** And the “effect on mitosis (length of mitosis)” value (RKO cells)?
**A.** prolongs mitosis

**Q.** And the “cell fate (cell death)” value (SW480 cells)?
**A.** cause cell death after a metaphase arrest in a subpopulation

**Q.** And the “effect on mitosis (length of mitosis)” value (SW480 cells)?
**A.** prolongs mitosis
